Legend:
[1] = accepted value; cited from earlier work
diabetic retinopathy = settings: humans, mainly in the 1980s; cited from earlier work
humans = test: administration to humans, tolerability; set-up: species or system human; settings: in vivo
in vivo [2] = settings: dog, iv
in vivo [3] = settings: mouse, iv

Structure (SMILES): [Cl-].[Na+] [common table salt]
- oral LD50 [1]: 3750 mg/kg

Structure (SMILES): O=C1NC(=O)[C@@]2(CCOc3ccc(F)cc32)N1 [sorbinil]
- efficacy in slowing progress of diabetic retinopathy and other diabetic complications (diabetic retinopathy): some efficacy
- toxicity / tolerability in patients (diabetic retinopathy): highly toxic

Structure (SMILES): O=S(=O)([O-])CCSSCCS(=O)(=O)[O-].[Na+].[Na+]
- dose administered with no adverse effects (humans): exceeding 15 g/m^2
- NOAEL (in vivo [2]): > 3750 mg/kg
- NOAEL (in vivo [3]): > 3750 mg/kg

Reference: patent US6274622A, “Method of treating diabetic ophthalmopathy” (priority 1999, dated 2001)
